The record followed here is patent US20180141939A1, “SOLID FORMS OF A BET INHIBITOR” (Gilead Sciences, Inc., priority 2016, published 2018).

Converted amounts (≈) assume the structure as drawn.

Holding throughout (format): physicochemical
A short description of data set [1]: Ionization constants (pKa). The following applies: multiple ionization constants; read-out: weak base pKa values.
Another data set can be described thus: physchem.
The nature of data set [2]: Chemical stability in aqueous solutions as a function of pH and temperature. The following applies: for degradation in aqueous solution: about 20 weeks. Here is the method: (FIG. 88(a)), or about 40° C. (FIG. 88(b)) over a period of about 20 weeks.
Data set [3] in a line: Susceptibility to oxidation in solution as a function of pH. Conditions: about 40° C., about 14 days. The source says:
In the presence of iron (II) ions, formation of a complex with iron is observed at high pH (FIG. 90). This complex can be reversed to yield Compound I by addition of a strong acid.

A short description of data set [4]: Dynamic vapor sorption (DVS) moisture uptake. Conditions: for hygroscopicity (DVS analysis): classification in words.
Data set [5] is described as follows: Relative stability of solid forms (competitive slurries).
Setting [6] is: increased degradation at higher pH.

For `Cc1noc(C)c1-c1cc(C(O)(c2ccccn2)c2ccccn2)c2nc(C3CC3)[nH]c2c1` [Compound I, (2-cyclopropyl-6-(3,5-dimethylisoxazol-4-yl)-1H-benzo[d]imidazol-4-yl)di(pyridin-2-yl)methanol], in data set [1], the pKa is 2.9. Further, the solubility in the data set “physchem” (pH 2.4, aqueous buffer) is over 100000 µg/mL; in the data set “physchem” (pH 8, aqueous buffer), 9.2 µg/mL (≈ 21 µM). Also, the “degradation in aqueous solution” value in data set [2] (about pH 1 to about pH 11, about 25° C.) was “no significant degradation”; in data set [2] (about pH 1 to about pH 11, about 40° C.), “no significant degradation”; in data set [2] (about pH 1 to about pH 11, about 60° C., exception pH 5 (small amount of aluminum complex)), “no significant degradation”. Besides, in data set [2] (aqueous solutions as a function of pH and temperature), the “susceptibility to acid- or base-catalyzed degradation” value is listed as “not susceptible to acid- or base-catalyzed degradation”. Besides, the “degradation in solution containing polysorbate 80” value in data set [3] was “No significant degradation”. Further, the “degradation in solution containing radical initiator” value in data set [3] was “No significant degradation”. In addition, the “degradation in solution containing hydrogen peroxide” value in data set [3] (setting [6]) is “loss of Compound I”. Also, the “degradation in solution containing iron (II) ions” value in data set [3] (setting [6]) is reported as “loss of Compound I”.
`Cc1noc(C)c1-c1cc(C(O)(c2ccccn2)c2ccccn2)c2nc(C3CC3)[nH]c2c1` [Compound I Form I, (2-cyclopropyl-6-(3,5-dimethylisoxazol-4-yl)-1H-benzo[d]imidazol-4-yl)di(pyridin-2-yl)methanol]: in data set [4] (at about 90% RH), the “moisture uptake (DVS)” value is “about 0.4%”. For the same compound, the “hygroscopicity (DVS analysis)” value in data set [4] is given as “slightly hygroscopic”. For the same compound, in data set [5] (statement in words), the “thermodynamic / physical stability of the solid form” value is given as “most thermodynamically stable form of Compound I”.
For the compound `Cc1noc(C)c1-c1cc(C(O)(c2ccccn2)c2ccccn2)c2nc(C3CC3)[nH]c2c1` [Compound I phosphate Form II, (2-cyclopropyl-6-(3,5-dimethylisoxazol-4-yl)-1H-benzo[d]imidazol-4-yl)di(pyridin-2-yl)methanol], the “hygroscopicity (DVS analysis)” value in data set [4] is “moderately hygroscopic”. Besides, the “relative stability in competitive slurries with Compound I phosphate Form I” value in data set [5] (MeOH/IPA, MeOH/EtOAc or MeOH/IPAc, overnight slurry at RT) was “less stable than Compound I phosphate Form I at ambient conditions”.

The term pKa denotes the pH at which an ionisable group is half protonated. The term solubility denotes the concentration that dissolves in the medium under given conditions.
